Columns and labels:
[1] = Stability of ground MC powder stored under refrigeration, pre-packaging; assay type: physicochemical; conditions: 5° C.±2° C., baseline to 3 months post grinding; one-way ANOVA
Description: In the described experiment, Bedrocan strain MC powder was stored at 5° C.±2° C. with up to 12% relative humidity (RH) in a polypropylene container, sealed in an aluminum foil pouch (Oliver-Tolas Healthcare Packaging B.V.; Venray, Netherlands). In order to assess its stability during the handling and hold time, samples were taken from three separate growing batches and assayed at baseline and at 1, 2 and 3 months post grinding. Each sample was assayed for loss on drying (LOD), and of the concentrations of the major phytocannabinoids (CBDA, CBD, CBGA, CBN, THCA and THC).
(§1) Analysis of cannabis inflorescences for the main phytocannabinoids (CBDA, CBD, CBGA, CBN, THCA and THC) was performed as follows: 100 mg of ground Cannabis inflorescences were weighed in duplicate from one container and extracted with 25 mL methanol then sonicated for 40 min and centrifuged at 3000 rpm for 5 min. All samples were filtered through a 0.22 μm PP filter vail prior to analysis. The dilution and quantitation were preformed corresponding to calibration curves. The main six phytocannabinoids were analyzed by ultra-high-performance liquid chromatography (UHPLC: […]) system with a refrigerated auto-sampler, thermostatic column oven and ultraviolet detector, Waters ACQUITY UPLC H-Class. Chromatographic separation was achieved using UPLC column Waters Acquity C18, 1.7 μm particles, 2.1×150 mm maintained at 30° C. The phytocannabinoids were separated using a gradient elution with mobile phases of 0.1% (v/v) formic acid in double-distilled water (phase A) and acetonitrile (phase B), respectively. A constant flow rate of 0.4 mL/min was employed throughout. The gradient profile varied from 70% to 100% B in 10.5 min, held for 0.5 min in these conditions and then returned to the initial conditions.
(§2) For THC and CBD, the concentrations of the acid and its neutral counterpart were summed and reported as the total content. For example, the concentration of total THC […] was calculated as: Total THC=THCA * 0.877+THC, with 0.877 being the molar ratio between the two compounds that corrects for a change in the mass of THCA as a result of the loss of CO2 (decarboxylation). This is shown in FIG. 7A: “U-HPLC analysis of the Bedrocan cultivar”.
(§3) R software (V.1.1.463) with tidyverse (17) package was used to analyze changes in outcome measures by one way ANOVA test, using Fisher's exact test analysis. All analyses were followed by a Tukey post-hoc test for multiple comparison. Data are presented as Mean±95% confidence interval (CI). Differences were considered significant at the p<0.05 level.

[2] = Long-term stability of ground cannabis packaged in Syqe cartridges at room temperature; assay type: physicochemical; conditions: 25° C.±2° C., RH 60%±5%, baseline to 24 months; one-way ANOVA
Description: (§4) In some embodiments, once cartridges are produced, they are stored, distributed and used at RT. In order to assess the shelf life of such cartridges, a long-term stability study was performed, during which cartridges were stored at 25° C.±2° C. (RH 60%±5%) in a calibrated and certified stability chamber (Memmert Constant climate chamber HPP260). 9, 6, 9, 8, 7, 4 and 4 separate growing batches were tested at baseline and after 3, 6, 9, 12, 18 and 24 months, respectively. At each time point samples of the ground inflorescence within the cartridges were analyzed for LOD and for the amount (mg) of each of the major phytocannabinoids (CBDA, CBD, CBGA, CBN, THCA and THC). Of the same batches, THC aerosolized by the Syqe inhaler was analyzed at baseline and at 6, 9, 18 and 24 months.
as §1, §2, §3

[3] = Stability of ground cannabis in Syqe cartridges stored at 30° C.; assay type: physicochemical; conditions: 30° C.±2° C., 65% RH, baseline to 6 months; one-way ANOVA
Description: Additionally, to assess the effects of a warmer temperature on MC, Syqe cartridges were stored post-production at an elevated temperature and humidity of 30° C.±2° C. (65% RH+5% RH). Three different growing batches were analyzed at baseline and at 1, 2, 4 and 6 months of storage.
as §1, §2, §3

[4] = after four years, room temperature (22 C), light or darkness (storage conditions A and B); cited from earlier work
[5] = THC dose aerosolized by the Syqe inhaler from stored cartridges; assay type: physicochemical; conditions: inhaler set to 500 μg THC, Mean±95% CI
Description: Methods: MC inflorescences were ground to a fine powder and the concentrations of the major phytocannabinoids therein were analyzed at different time points using ultra-high performance liquid chromatography (U-HPLC). Storage was done under different temperature and humidity conditions, before or after being packaged in Syqe cartridges. MC aerosolized by a the Syqe inhaler using Syqe cartridges stored for up to 2 years at 25° C. was analyzed for THC doses.
as §4
In some embodiments, the Syqe inhaler is preprogrammed with several distinct heating protocols. […]

[6] = Vaporization of THC and terpenes from ground cannabis heated to target temperatures; assay type: physicochemical; conditions: 135 mg ground cannabis; vaporized THC measured in the aerosol; targets 60-150° C.
Description: The vaporization plots in FIGS. 6A-B show results of an experiment performed by the inventors in which samples of 135 mg of ground cannabis were heated to several target temperatures, including 60° C., 70° C., 80° C., 90° C., 100° C., 110° C., 120° C., 130° C., 140° C. and 150° C. At each of the target temperatures, vaporized THC was measured in the aerosol. At each of the target temperatures, the residual mass of ground cannabis was analyzed using Gas Chromatography —Mass Spectrometry (GC/MS) to determine existence of terpenes, such as: Linalool, Isopulegol, Geraniol, Caryophyllene, 26.82 Humulene<alpha->and Nerolidol. The total terpenes residue (as remaining in the ground cannabis) is indicated by the dashed line in FIG. 6A. Based on the residual mass of terpenes, the released (vaporized) amount terpenes was calculated, by subtracting the measured residual mass from a respective reference mass.

SMILES | change in phytocannabinoid concentration during the study period [1] | change in phytocannabinoid amount [2] | change in phytocannabinoid amount [3] | THC degraded [4] [%] | aerosolized THC dose ([5]; 6 months at 25° C.) [µg] | aerosolized THC dose ([5]; BL) [µg] | target temperature at which release started [6] [degrees C.]
CCCCCc1cc(O)c2c(c1)OC(C)(C)c1ccc(C)cc1-2 [CBN, Cannabinol] | no significant change | increased significantly | increased significantly | – | – | – | –
C=C(C)[C@@H]1CCC(C)=C[C@H]1c1c(O)cc(CCCCC)c(C(=O)O)c1O [CBDA, cannabidiolic acid] | no significant change | no significant change | – | – | – | – | –
CCCCCc1cc2c(c(O)c1C(=O)O)[C@@H]1C=C(C)CC[C@H]1C(C)(C)O2 (relative stereo) [THCA, (-)-Δ^9-trans-tetrahydrocannabinolic acid] | no significant change | decreased significantly | decreased significantly | – | – | – | –
CCCCCc1cc(O)c2c(c1)OC(C)(C)[C@@H]1CCC(C)=C[C@@H]21 [THC, (-)-Δ^9-trans-tetrahydrocannabinol] | no significant change | increased significantly | increased significantly | ~100 | 486.30 ± 50.56 | 484.76 ± 31.28 | 130
CCCCCc1cc(O)c(C/C=C(\C)CCC=C(C)C)c(O)c1C(=O)O [CBGA, cannabigerolic acid] | no significant change | decreased significantly | decreased significantly | – | – | – | –

From patent publication US20250339631A1, “CONTROLLED RELEASE OF […] A SOURCE MATERIAL STORED OVER TIME” (Syqe Medical Ltd., priority 2022, published 2025)
